Source: US20060275769A1 (priority 2003, published 2006)
Entries after “also recorded” stand apart in the source; their conditions may differ.

How the values were obtained:
KSHV-infected DMVEC [1] = conditions: cited from earlier work
KSHV-infected DMVEC [2] = conditions: cited from earlier work; remark: listed apart in the source
KSHV-infected DMVEC [3] = experiment: Inhibition of KSHV-induced spindle cell formation by PMO antisense gene silencing; type: cell-based, human; conditions: for effect on KSHV-induced spindle cell formation / phenotypic inhibition (in words): PMO antisense silencing; for Extent of PMO-induced Inhibition of Spindle Cell Formation / Phenotype Inhibition (inhibition of spindle cell formation): gene-specific PMO antisense
Excerpt: Antisense Gene Silencing using PMOs. […] Silencing of such genes precluded progression into the transformed phenotype when silencing occurred prior to transformation, or induced reversion to the normal state when silencing occurred after induction of the transformed state (see TABLE 2 below).
(§1) Introduction of antisense PMO into KSHV-infected DMVEC. Antisense PMO molecules, for delivery purposes, are typically converted to a paired duplex together with a partially complementary cDNA oligonucleotide in the weakly basic delivery reagent ethoxylated polyethylenimine (EPEI) (Summerton, supra). The anionic complex binds to the cell surface, is taken up by endocytosis and eventually released into the cytosol. A protocol for optimum uptake of antisense PMO in immortalized DMVEC was developed using a modification of the EPEI method. Briefly, uninfected, immortalized DMVECs were incubated for 3 hours at 37° C. with 0.6 nmol/well FITC-PMO complexed with EPEI according to the manufacturer's instructions (Genetools, LLC, One Summerton Way, Philomath, OR 97370) (e.g., 1.25 n Mol oligomer with 2.5 μl EPEI reagent per 35 mm dish, allowing for sufficient antisense uptake without non-specific EPEI-induced toxicity). The PMOs were labeled with FITC to allow for monitoring of loading efficiency by fluorescence microscopy.
(§2) Specifically, DMVEC were infected with KSHV, plated in 35 mm dishes and allowed to grow to about 90% confluence. For treatment, KSHV-infected cells were treated with the anti-c-Kit PMO-antisense oligomer-EPEI delivery reagent complex and incubated for 3 hours at 37° C. in serum-free medium to allow for oligomer uptake. A titration experiment testing a range of different oligomer/EPEI volumes was used to determine that loading 1.25 nmol oligomer with 2.5 μl EPEI reagent per 35 mm dish allowed efficient antisense uptake without non-specific EPEI-induced toxicity. Control (mock-treated) DMVEC cultures were loaded with EPEI reagent and sterile water or sterile water alone. Upon removal of the oligomer-EPEI solution, cell monolayers were rinsed in serum-free medium fed with complete medium and examined daily for one week by phase microscopy for evidence of phenotypic change.

KSHV-infected DMVEC [4] = experiment: XTT proliferation assay after PMO loading; type: cell-based, human; conditions: PMO antisense silencing
Method: Proliferation assays, and loading of cells with PMOs. Proliferation of KSHV-infected DMVEC was quantified using an XTT (2,3-bis-(2-methoxy-4-nitro-5-sulfophenyl)-2H-tetrazolium-5-carboxanilide, disodium salt)-based assay. KSHV-infected cells were added to Primaria 96-well trays (Becton Dickinson) at 1×10^4 or 5×10^4 cells/well. XTT (Roche, Molecular Biochemicals, Indianapolis, Ind.) was added 48 hours later according to the manufacturer's instructions. Absorbance was read after 4 to 6 hours on a microplate reader.
Briefly, cells were plated in 96-well trays at a density approaching confluence (5×10^4 cells per well) in 100 μl of complete medium. PMOs were loaded the following day in a total of 100 μl (0.5 μl PMO, 0.5 μl EPEI, 49 μl H2O and 50 μl serum free medium) with reagent mixing as described by the manufacturer (GeneTools). Controls included a FITC PMO control oligonucleotide, EPEI only or H2O only. Each variable was performed in quadruplicate. Fresh complete medium was replaced 4 hours after loading. Cells were cultured for 4 days to allow for multi-layered cell growth post-confluence in the absence of any growth inhibition. XTT was added on day 4 of culture and the a bsorbance read 4 hrs later on a microplate reader. Cell proliferation (growth) values are given as percentage inhibition values, relative to cells without PMO, which are adjusted to 100%.

KSHV-infected DMVEC [5] = experiment: Focus formation / contact inhibition by phase microscopy after c-Kit PMO loading; type: cell-based, human; conditions: 1.25 nmol PMO and 2.5 μl EPEI per 35 mm dish, one week post-loading
Method: Proof of principal for target validation; silencing of c-Kit gene expression.
as §2

immortalized DMVEC = experiment: Uptake and persistence of FITC-labeled PMO by fluorescence microscopy; type: cell-based, human; conditions: FITC-labeled PMO with EPEI, at 3 hours
Excerpt: as §1
Cellular distribution of introduced FITC-labeled POM antisense molecules. […] Specifically, the c Kit antisense PMO molecules were initially concentrated in intracellular vesicles (endosomes) at 3 hours in about 70% of the cells, and distributed within the cytoplasm at 66 hours.

KSHV-infected DMVEC [6] = experiment: Inhibition of KSHV-induced spindle cell formation by PMO antisense gene silencing; type: cell-based, human

| Compound | effect on KSHV-induced spindle cell formation / phenotypic inhibition (in words) (KSHV-infected DMVEC [3]) | Extent of PMO-induced Inhibition of Spindle Cell Formation (KSHV-infected DMVEC [3]) | Phenotype Inhibition (inhibition of spindle cell formation) (KSHV-infected DMVEC [3]) | inhibition of KSHV-induced cellular proliferation (in words) (KSHV-infected DMVEC [4]) | further results |
| --- | --- | --- | --- | --- | --- |
| Cc1ccc(NC(=O)c2ccc(CN3CCN(C)CC3)cc2)cc1Nc1nccc(-c2cccnc2)n1 [STI 571] |  |  |  |  | phenotype after removal of the compound (KSHV-infected DMVEC [1]; removal of STI 571, even after exposure to a 10 μM dose): regeneration of the transformed phenotype; focus formation (KSHV-infected DMVEC [1]; treatment to inhibit endogenous c-Kit tyrosine kinase activity): focus formation is inhibited; nonspecific cytotoxicity (cell viability controls) (KSHV-infected DMVEC [2]): not due to nonspecific cytotoxicity; proliferative response of KSHV-infected DMVEC to exogenous SCF (KSHV-infected DMVEC [2]; exogenous SCF): inhibited |
| AGCATGTCACGCACAGTGGCCTCAT (all phosphorodiamidate morpholino (PMO)) [ANGPTL2] | intermediate inhibitory effects | intermediate | Intermediate |  |  |
| AGCTCGTGCTCTGCACACTCTGCAT (all phosphorodiamidate morpholino (PMO)) [NOV] | fully reversed spindle cell formation | full | Full |  |  |
| AGCTTCATGTTGGAGGTGTTCG (all phosphorodiamidate morpholino (PMO)) [IFACTOR] | little or no affect on KSHV-induced spindle cell formation | none | None | relatively little or no significant inhibition |  |
| CGCCTCTCATCGCGGTAGCTGCG (all phosphorodiamidate morpholino (PMO); further chemistry not fully specified) [KIT] | fully reversed spindle cell formation | full | Full | substantial inhibition of KSHV-induced cellular proliferation | foci formation / contact-inhibited growth (KSHV-infected DMVEC [5]; listed as c-Kit antisense PMO oligomer): did not develop foci; also recorded: did not progress to spindle cell and foci formation; foci formation / contact-inhibited growth (KSHV-infected DMVEC [5]; listed as c-Kit-specific antisense PMO oligonucleotides): did not develop foci; cells with PMO concentrated in intracellular vesicles (uptake) (immortalized DMVEC): about 70% |
| GAAGAGATGCAGATCCATCGTTCTG (all phosphorodiamidate morpholino (PMO)) [RDC-1] | fully reversed spindle cell formation | full | Full | substantial inhibition of KSHV-induced cellular proliferation | effect on KSHV-induced spindle cell formation / phenotypic inhibition (in words) (KSHV-infected DMVEC [6]; listed as RDC-1-specific PMO): full phenotypic inhibition |
| GCCGAGGACATTGGGGAGGGAGGCG (all phosphorodiamidate morpholino (PMO)) [LMO2] | little or no affect on KSHV-induced spindle cell formation | none |  |  |  |
| GGAGCACGGTCCAGGCGAAGCGCAT (all phosphorodiamidate morpholino (PMO)) [LOX] | fully reversed spindle cell formation | full | Full |  |  |
| GGCAGCCCACTCTCTCGGCAGCATG (all phosphorodiamidate morpholino (PMO)) [IGFBP2] | fully reversed spindle cell formation | full | Full | substantial inhibition of KSHV-induced cellular proliferation |  |
| GGCTCCATCTTGGGCTCTGGGCTCC [FLJ14103] | fully reversed spindle cell formation | full |  |  |  |
| GGGTCTCCTCGGATCAGGCGCG (all phosphorodiamidate morpholino (PMO)) [INSR] | intermediate inhibitory effects | intermediate | Intermediate | substantial inhibition of KSHV-induced cellular proliferation |  |
| GTCAGTTTACTCATGTCATCTATTG (all phosphorodiamidate morpholino (PMO)) [KIAA0367] | intermediate inhibitory effects | intermediate | Intermediate | substantial inhibition of KSHV-induced cellular proliferation | effect on KSHV-induced spindle cell formation / phenotypic inhibition (in words) (KSHV-infected DMVEC [6]; listed as KIAA0367-specific PMO): intermediate phenotypic inhibition |
| Osteopontin |  |  | None | relatively little or no significant inhibition |  |
| TGAATAAGCAACAATGTAGCTTCAT (all phosphorodiamidate morpholino (PMO)) [MFAP3] | little or no affect on KSHV-induced spindle cell formation | none | None | relatively little or no significant inhibition | effect on KSHV-induced spindle cell formation / phenotypic inhibition (in words) (KSHV-infected DMVEC [6]; listed as MFAP-specific PMO): no phenotypic inhibition |
| TTAACTCCCATCCTACGTTTAGTCA (all phosphorodiamidate morpholino (PMO)) [Neuritin] | fully reversed spindle cell formation | full | Full | substantial inhibition of KSHV-induced cellular proliferation |  |
